Test results: PMC11694070, “Development of 6-amido-4-aminoisoindolyn-1,3-diones as p70S6K1 inhibitors and potential breast cancer therapeutics” (Frontiers in Molecular Biosciences, 2024)

How the values were obtained:
[1] = test system: MCF7 E3 cells; assay: MCF-7 E3 cell proliferation assay (alamarBlue); assay type: cell-based; settings: Homo sapiens, 10 μM compound, in the presence of E2 (10^−10 M), estrogen-deprived cells
Protocol: Human breast tumor cells MCF-7 subclone E3 were routinely maintained in DMEM medium (Mediatech) supplemented with non-essential amino acid (Gibco), sodium pyruvate (Gibco), L-glutamine (Gibco), gentamicin (Gibco), and 10% fetal bovine serum (FBS) (Hyclone). For the proliferation experiment, the MCF-7 monolayer was dispersed into suspension in DMEM medium with 10% FBS, and 5 × 10^5 cells were seeded into a T-25 flask. The medium was aspirated from the cells, washed with phosphate buffer saline, and cultured with DMEM medium containing dextran-coated charcoal (DCC) FBS for 6 days. After 6 days, the cells were dispersed into suspension, counted, and 1.8 × 10^4 cells per well in a 100 µL DCC medium was subcultured into 96-well plates. After 24 h incubation, the medium was aspirated and replaced with the test compound at 10^−5 M. The cells were dosed again after 3 days and grown for another 3 days. Measurement for cell proliferation was performed with alamarBlue (Bio-Rad) on a plate reader (BioTek Synergy Neo2) with 560 nm excitation and 590 nm emission. The experiments were performed in quadruplicate.
The MCF7 cell line is often used in studies involving ERα overexpressing BC. It is well-established that overexpression of estrogen leads to overexpression of p70S6K1 due to the costimulatory relationship between them, thereby driving the progression of BC ([Fullwood et al., 2009]; [Maruani et al., 2012]). The knockdown or absence of estrogen was partially abrogated by p70S6K1 rescuing and promoting ERα activity ([Holz, 2012]; [Yamnik et al., 2009]). For these reasons, MCF7 cells were used for the proliferation studies in the presence of our p70S6K1 inhibitors. MCF7 E3 cells were grown under estrogen-deprived conditions and treated with 10 μM concentrations of the compounds with and without E2 (10^−10 M). The proliferation was measured using alamarBlue (Figure 5). Compound 5b, with the best p70S6K1 inhibition potency of 0.4 μM IC50 value, inhibited the proliferation of MCF7 E3 cells by 60% in the presence of E2. […] The trend of MCF7 E3 proliferation was directly proportional to the p70S6K1 inhibition potency.

[2] = biological target: p70S6K1 (Homo sapiens, UniProt P23443); assay: Z′-LYTE biochemical kinase inhibition assay (SelectScreen, Thermo Fisher); settings: for inhibition at 10 µM: 10 µM compound concentration, high-throughput single-concentration screen; for IC50 / IC50 of inhibition of p70S6K1: 10-point titration, 3-fold dilutions from 25 μM
Sequence of p70S6K1 (P23443 24-525): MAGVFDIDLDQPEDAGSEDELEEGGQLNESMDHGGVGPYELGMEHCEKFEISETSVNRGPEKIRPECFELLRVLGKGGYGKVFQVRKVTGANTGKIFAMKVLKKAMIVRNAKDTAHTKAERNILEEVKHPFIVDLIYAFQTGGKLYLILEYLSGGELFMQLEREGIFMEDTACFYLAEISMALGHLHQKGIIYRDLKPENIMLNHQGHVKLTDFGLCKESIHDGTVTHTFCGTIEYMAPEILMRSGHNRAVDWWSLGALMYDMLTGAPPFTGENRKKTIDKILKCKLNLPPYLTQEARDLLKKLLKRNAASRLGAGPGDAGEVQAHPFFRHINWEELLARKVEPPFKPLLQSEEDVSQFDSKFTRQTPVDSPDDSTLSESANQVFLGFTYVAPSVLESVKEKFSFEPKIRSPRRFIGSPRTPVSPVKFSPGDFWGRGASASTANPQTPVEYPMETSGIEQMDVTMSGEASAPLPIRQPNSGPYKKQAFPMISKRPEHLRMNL
Protocol: The high-throughput and dose-response curve assays against kinases were performed using the services of SelectScreen™ Biochemical Kinase Profiling Service by Thermo Fisher Scientific (Table 2; Supplementary Figure S13). The Z ´-LYTE biochemical assay employs a fluorescence-based, coupled-enzyme format based on the differential sensitivity of phosphorylated and non-phosphorylated peptides to proteolytic cleavage. The peptide substrate is labeled with two fluorophores—one at each end—that make up a fluorescence resonance energy transfer (FRET) pair. In the primary reaction, the kinase transfers the gamma-phosphate of ATP to a single tyrosine, serine, or threonine residue in a synthetic FRET-peptide. In the secondary reaction, a site-specific protease recognizes and cleaves non-phosphorylated FRET peptides. Phosphorylation of FRET-peptides suppresses cleavage by the development reagent. Cleavage disrupts FRET between the donor (i.e., coumarin) and acceptor (i.e., fluorescein) fluorophores on the FRET-peptide, whereas uncleaved, phosphorylated FRET-peptides maintain FRET. A ratiometric method, which calculates the emission ratio of donor emission to acceptor emission after excitation of the donor fluorophore at 400 nm, is used to quantitate reaction progress, as shown in the equation below.” Emission ratio=Coumarin emission 445 nm/Flourescein emission 520 nm.
The test compounds were screened in 1% DMSO (final) in the well. For 10-point titrations, 3-fold serial dilutions were conducted from the starting concentration of 25 μM.
All peptide/kinase mixtures are diluted to a 2× working concentration in the appropriate kinase Buffer. The 2X RPS6KB1 (p70S6K)/Ser/Thr 07 mixture is prepared in 50 mM HEPES pH 7.5, 0.01% BRIJ-35, 10 mM MgCl2, 1 mM EGTA. The final 10 µL kinase reaction consists of 2.87–17.7 ng RPS6KB1 (p70S6K) and 2 µM Ser/Thr 07 in 50 mM HEPES pH 7.5, 0.01% BRIJ-35, 10 mM MgCl2, 1 mM EGTA. After the 1 h kinase reaction incubation, 5 µL of a 1:45000 dilution of Development Reagent A is added.
All ATP Solutions are diluted to a 4X working concentration in kinase buffer (50 mM HEPES pH 7.5, 0.01% BRIJ-35, 10 mM MgCl2, 1 mM EGTA). ATP Km apparent was previously determined using a Z′-LYTE assay.
Bar-coded Corning, low volume NBS, black 384-well plate (Corning Cat. #4514). • 1. 100 nL 100X test compound in 100% DMSO • 2. 2.4 µL kinase buffer • 3. 5 μL 2X peptide/kinase mixture • 4. 2.5 µL 4X ATP solution • 5. 30-s plate shake • 6. 60-min kinase reaction incubation at room temperature • 7. 5 μL Development Reagent solution • 8. 30-s plate shake • 9. 60-min Development Reaction incubation at room temperature • 10. Read on the fluorescence plate reader and analyze the data
The SelectScreenTM Biochemical Kinase Profiling Service by ThermoFisher Scientific was used to perform a high-throughput kinase inhibition assay at a single concentration as well as 10-point titrations to generate the dose-response curves for IC50 calculations. The Z′-LYTE biochemical assay, which is a FRET-based assay, was used to analyze the compounds for p70S6K1 inhibition. Compounds 5a–f were subjected to an initial high-throughput screening against p70S6K1 at 10 µM concentration (Table 1).

[3] = test system: rpS6 phosphorylation (S235/236, S240/244); assay: Western blot of rpS6 and phospho-rpS6 in MCF7 cells; assay type: cell-based, Human; settings: MCF7 cells estrogen deprived, 5 µM and 10 µM, with β estradiol, 24 h and 48 h
Protocol: Total proteins were isolated using standard protocols as previously described ([Greenberg et al., 2022]; [Kim H. et al., 2013]). In brief, ice-cold RIPA lysis buffer containing phosphatase and protease inhibitors (Santa Cruz Biotechnology, Dallas, TX, USA) was used to lyse cells. The clarified lysate protein concentration was measured using Bradford reagent (Thermo Scientific, Waltham, MA, USA). The proteins were separated using a 4%–20% SDS-PAGE gradient gel and transferred onto a PVDF membrane (Bio-Rad, Hercules, CA, USA). A 1X blocking buffer was used to block the non-specific binding sites. The membranes were washed with Tris-buffered saline (Bio-Rad) containing 0.1% Tween-20 (Sigma-Aldrich, St. Louis, MO, USA). Membranes were incubated overnight with primary antibodies at 4°C. […] Immune complexes were detected with appropriate secondary antibodies from Invitrogen (Camarillo, CA, USA) and Clarity Western ECL Substrate (Bio-Rad), as described ([Greenberg et al., 2022]). […] Results were expressed as the standard error of the mean (±SEM). Significant changes from controls or E2 treated group were determined by a two-tailed Student’s t-test, and p-values of <0.05 were considered significant. […]

[4] = design: method as in Li et al., 2010; Motzer et al., 2015; Tolcher et al., 2014; settings: given with erlotinib and everolimus; ref Li et al., 2010; Motzer et al., 2015; Tolcher et al., 2014; cited from earlier work
[5] = test system: cervical cancer cells; design: method as in Nam et al., 2019; settings: ref Nam et al., 2019; cited from earlier work
[6] = design: method as in Pearce et al., 2010; Segatto et al., 2016; settings: ref Pearce et al., 2010, Segatto et al., 2016, cited from earlier work

Structure (SMILES) | inhibition at 10 µM [1] [%] | inhibition at 10 µM [2] [%] | IC50 [2] [nM] | IC50 of inhibition of p70S6K1 [2] | further results
Nc1cc(NC(=O)Cc2cccc(C(F)(F)F)c2)cc2c1C(=O)NC2=O [Compound 5d, N-(7-amino-1,3-dioxoisoindolin-5-yl)-2-(3-(trifluoromethyl)phenyl)acetamide] | 56 | > 90 | 510 | sub-micromolar | –
Nc1cc(NC(=O)Cc2ccc(Br)cc2)cc2c1C(=O)NC2=O [Compound 5f, N-(7-amino-1,3-dioxoisoindolin-5-yl)-2-(4-bromophenyl)acetamide] | 40 | 93 | 750 | sub-micromolar | –
Nc1cc(NC(=O)Cc2ccccc2)cc2c1C(=O)NC2=O [Compound 5b, N-(7-amino-1,3-dioxoisoindolin-5-yl)-2-phenylacetamide] | 60 | > 90 | 400 | sub-micromolar | rpS6 protein expression and phosphorylation (S235/236, S240/244), immunoblot band intensity [3]: significant decreases
Cn1cc(-c2ccc(F)c(C(F)(F)F)c2)nc1C1CCN(c2ncnc3[nH]ncc23)CC1 [LY-2584702] | – | – | – | – | tolerability in Phase I trials [4]: not well-tolerated
Nc1cc(N)c2c(c1)C(=O)NC2=O [Compound 4, 4,6-diaminoisoindoline-1,3-dione] | – | 70 | 1200 | – | –
COC(=O)[C@@H](Cc1ccc(O)c(O)c1)OC(=O)/C=C/c1ccc(O)c(O)c1 [Rosmarinic acid methyl ester] | – | – | – | – | autophagy and apoptotic cell death [5]: increase in autophagy and apoptotic cell death
CCc1cncnc1N1CCN(Cc2nc3cc(C(F)(F)F)ccc3[nH]2)CC1 [PF-4708671] | – | – | – | – | tolerability in preclinical studies ([6]; preclinical studies for breast cancer): well-tolerated; blood–brain barrier (BBB) penetration [6]: poor blood–brain barrier (BBB) penetrant
Nc1cc(NC(=O)C23CC4CC(CC(C4)C2)C3)cc2c1C(=O)NC2=O [Compound 5e, N-(7-amino-1,3-dioxoisoindolin-5-yl)adamantane-1-carboxamide] | – | 22 | – | – | –
Nc1cc(NC(=O)Cc2ccc(C(F)(F)F)cc2)cc2c1C(=O)NC2=O [Compound 5c, N-(7-amino-1,3-dioxoisoindolin-5-yl)-2-(4-(trifluoromethyl)phenyl)acetamide] | 35 | 80 | 5450 | – | –
